Key:
Assay type in all cases: in vivo
[1] = test system: southern root-knot nematode (Meloidogyne incognita); assay: Root knot index on tomato in pots with soil contaminated with southern root-knot nematode (Test Example 1); set-up: key: visual root knot index, 0 to 100%; conditions: non-treated = 100
Experimental: 1 Liter of sand soil having paddy soil sterilized by steam and sand mixed in a volume ratio of 1:1 was put into a 1/1,000,000 ha pot, and a predetermined amount of a test compound was added and mixed. Immediately after addition of the compound, 500 mL of soil contaminated with southern root-knot nematode (Meloidogyne incognita) was put in each pot and sufficiently mixed, and then seedling of tomato (cultivar: yellow pear) were transplantated. On the 33rd to 35th day after transplantation, the root knot index (0 to 100%) formed by nematode was visually determined. The test was carried out by two replications.
Further, theoretical values determined by the Colby's formula are shown in brackets ( ) in Tables.

[2] = test system: common cutworm; assay: Control of common cutworm larvae on leaf of cabbage grown in treated soil (Test Example 3); conditions: second-instar larvae, 4th day
From the text: (§1) Control value(%)=(1−(number of parasites in treated area)/(number of parasites in non-treated area))×100
Sand soil having sand, non-sterilized soil and sterilized soil mixed in a volume ratio of 1:1:1 was put into a 1/500,000 ha pot, and predetermined amounts of test compounds were sufficiently mixed. Seedlings of cabbage (cultivar: Okina) in 3-leaf stage were transplanted and grown in a greenhouse for 11 days. Then, the fourth leaf of the cabbage was cut, and 10 second-instar larvae of common cutworm were released. On the 4th day, the number of surviving insects was examined, and the control value was determined in the same manner as in Test Example 2. The test was carried out by three replications. Further, theoretical values determined by the Colby's formula are shown in brackets ( ) in Table 5. Further, the combination of fosthiazate and imidacloprid was tested as a Comparative Example.

[3] = test system: larvae of turnip fly; assay: Field test, damage to Daikon radish root by larvae of turnip fly (Test Example 4); conditions: 36th day after sowing
Experimental: Granules of fosthiazate and granules of clothianidin were mixed in predetermined active ingredient amounts, and the mixture was spread on the surface of soil of a field and sufficiently mixed by a small rotary. Seeds of Daikon radish were sown, and on the 36th day after sowing, the degree of damage to the root by larvae of turnip fly was examined by degree, and the damage grade was determined in accordance with the following formula. Further, theoretical values determined by the Colby's formula are shown in brackets ( ) in Table 6. Further, the combination of granules of fosthiazate and granules of imidacloprid was tested as a Comparative Example.
Degree of damage (nil: 0, low: 1, middle: 2, high: 3, enormous: 4)
Damage grade={Σ(damage grade index×number of Daikon radish investigated at each degree of damage)/(total number investigated×4)}×100

[4] = test system: two-spotted spider mite; assay: Control of two-spotted spider mite on eggplant seedlings in pots (Test Example 2); conditions: 14th day after treatment
Experimental: 1 Liter of sand soil having paddy soil sterilized by steam and sand mixed in a volume ratio of 1:1 was put into a 1/1,000,000 ha pot, and a predetermined amount of a test compound was added and mixed. Seedlings of eggplant (cultivar: Senryo No. 2) in which 30 adults of two-spotted spider mite (greenish yellow) were parasitic were transplanted and grown in a greenhouse for 5 days, and a test compound was applied to each pot. On the 14th day after treatment, the number of two-spotted spider mite parasitic in each pot was examined. The test was carried out by three replications. The test results are shown in Table 4 by the control value (%). Further, theoretical values determined by the Colby's formula are shown in brackets ( ) in Table 4.
Further, the control value (%) was calculated in accordance with the following formula.
as §1

[5] = Table 2, single compound 500 g a.i./ha
[6] = Table 3, single compound 5000 g a.i./ha
[7] = single compound granules 500 g a.i/ha
[8] = single compound granules 750 g a.i/ha
[9] = single compound granules 1000 g a.i/ha
[10] = Table 1, single compound 5000 g a.i./ha, tomato, 33rd to 35th day

Cc1c(F)c(F)c(COC(=O)[C@@H]2[C@H](/C=C(\Cl)C(F)(F)F)C2(C)C)c(F)c1F (racemic) [Tefluthrin, tefluthrin]
Root knot index [1, 5]: 100

O=C(NC(=O)c1c(F)cccc1F)Nc1cc(Cl)c(Oc2ncc(C(F)(F)F)cc2Cl)c(Cl)c1 [Chlorfluazuron, chlorfluazuron]
Root knot index [1, 6]: 100

O=C(NC(=O)c1c(F)cccc1F)Nc1ccc(Oc2ccc(C(F)(F)F)cc2Cl)cc1F [Flufenoxuron, flufenoxuron]
Root knot index [1, 6]: 100

O=[N+]([O-])NC1=NCCN1Cc1ccc(Cl)nc1 [Imidacloprid, imidacloprid]
Control value ([2]; single compound 156 g a.i/ha): 6.7% | Control value ([2]; single compound 313 g a.i/ha): 13.3% | Damage degree [3, 7]: 23.2 | Damage degree [3, 8]: 34.7 | Damage degree [3, 9]: 26.3

CCOc1ccc([Si](C)(C)CCCc2ccc(F)c(Oc3ccccc3)c2)cc1 [Silafluofen, silafluofen]
Root knot index [1, 5]: 100

O=C(NC(=O)c1c(F)cccc1F)Nc1cc(Cl)c(F)c(Cl)c1F [Teflubenzuron, teflubenzuron]
Root knot index [1, 6]: 100

CN/C(=N\[N+](=O)[O-])NCc1cnc(Cl)s1 [clothianidin]
Root knot index [1, 10]: 99.3 | Control value ([4]; single compound 400 g a.i/ha): 35% | Control value ([4]; single compound 800 g a.i/ha): 48% | Control value ([4]; single compound 1500 g a.i/ha): 22% | Control value ([2]; single compound 156 g a.i/ha): 3.3% | Control value ([2]; single compound 313 g a.i/ha): 20.0% | Damage degree [3, 7]: 20.0 | Damage degree [3, 8]: 25.3 | Damage degree [3, 9]: 0

CN/C(=N/CC1CCOC1)N[N+](=O)[O-] (stereo not shown) [dinotefuran]
Root knot index [1, 10]: 97.6

CCOP(=O)(SC(C)CC)N1CCSC1=O (stereo not shown) [fosthiazate]
Root knot index ([1]; Table 1, single compound 750 g a.i./ha, soil mixing, tomato, 33rd to 35th day): 35.4 | Root knot index ([1]; Table 2, single compound 750 g a.i./ha): 22.0 | Root knot index ([1]; Table 2, single compound 1500 g a.i./ha): 5.0 | Root knot index ([1]; Table 3, single compound 750 g a.i./ha): 15.8 | Control value ([4]; single compound 6000 g a.i/ha): 98% | Control value ([2]; single compound 6000 g a.i/ha): 73.3% | Damage degree ([3]; single compound granules 6000 g a.i/ha, Daikon radish field): 33.7

CN1COCN(Cc2cnc(Cl)s2)/C1=N\[N+](=O)[O-] [thiamethoxam]
Root knot index [1, 10]: 95.7

Source: US20150126475A1, “PESTICIDAL COMPOSITION AND METHOD FOR CONTROLLING PESTS” (priority 2012, published 2015)
